The source of these data is US6310247A, “7-aryl-6(Z)-heptatrienoic acid retinamides” (Hoffmann-LA Roche Inc., priority 1999, dated 2001).

In assay [1] the test system is ER+ and ER- breast carcinoma cells. As to the kind of experiment: Induction of apoptosis in ER+ and ER- carcinoma cells (statements in words). The note with it: 24-48 h. It is filed as cell-based, human. Here is the method: (§1) 2. Apoptosis: Cell death detection by ELISA:
(§2) Compounds of formula 1 were tested for the ability to cause apoptosis as follows:
(§3) Cells and media were collected, cells were pelleted, resuspended in 100 μl lysis buffer (50 mM Tris-Cl (pH=8.0), 20 mM EDTA, 1% NP-40e) and incubated 30 minutes at 4° C. to lyse. Cell debris was spun down and an aliquot (30 μl) of the […] was removed for protein determination and stored at -20° C. An additional 280 μl of lysis buffer, was added, mixed thoroughly and spun down at 14,000 RPM for 10 minutes at 4° C. An aliquot was removed (180 μl) and the sample was stored at -20° C. until testing.
A commercially available apoptosis detection kit, obtained from Boehringer Mannheim (Cat. No. 1544-674), was used as per the directions provided with the kit (Cell Death Detection ELISA). […] The assay measures apoptosis by quantifying the amount of nucleosomal fragmentation from the extracts of cells treated with the test compounds (samples). […] The resulting colorimetric change is measured spectrophotometrically at 405/490nm.
The total protein content of each sample was determined for the purpose of normalizing the ELISA values to amount of sample loaded. […] The protein concentrations were calculated based upon a linear regression curve. […]
Relative ELISA O.D. readings are determined by subtracting the ELISA plate background O.D. value. […] A correction coefficient (CC), based on the sample protein concentration compared to no drug control, was determined to correct the sample O.D. following subtraction of the background O.D. (BCS O.D.). The fold increase over no drug control is calculated and normalized to the total protein concentration of the samples by multiplying against the correction coefficient. […]
To determine the total protein concentration of the samples, obtain the total protein concentration in mg/ul calculated using standard linear regression formula (y=mx+b) based on BSA standards. […] Protein concentration (PC)(mg/ml)=(sample absorbance-b)/x. […]

A further assay has as its system MDA 231 cells. As to the kind of experiment: Cell growth inhibition: MTT assay, MDA 231 (ER- breast carcinoma). In kind it is cell-based. The note with it: Homo sapiens, MDA-MB-231, read-out: % inhibition of cell growth compared to no drug control. How it is done:
ER- breast carcinoma, human (MDA-231) obtained from ATCC (HTB 22), were grown in Eagle's MEM medium supplemented with non-essential amino acids, sodium pyruvate, and Earle's BSS, 10% FBS, and 13 ng/mL gentamicin. Cells were incubated at 37° C., 4.5% CO2 and 95.5% humidified air.
1. Cell growth inhibition: MTT Assay
The compounds of formula 1 were tested for ability to inhibit cell growth using the standard MTT assay, a tetrazolium-based assay which measures the viability of cells in culture. Cells were harvested upon reaching 70-80% confluency and pelleted. The cells were then resuspended in medium in which FBS was replaced with Hyclone's Charcoal/Dextran stripped FBS, and seeded (2 mL/well) into 6-well plates (Corning) at a density allowing for linear growth over a four day assay period. Compounds of formula 1 (10 mM stock in dimethylsulfoxide (DMSO)) were added 18-24 hours post-seeding. Compound dilutions were prepared in the appropriate growth media and added to the cells for final concentrations of 10, 3.3 and 1 μM in 0.1% DMSO. At 24, 48 and 72 hr. time points, MTT (3-[4,5-dimethylthiazol-2-yl-2,5-diphenyltetrazolium bromide) stock solution (5mg/mL in 1 PBS) was added to the cells plates (625 μL/well) which were then incubated for 2.5 hours. Liquid was aspirated from the wells and 1 mL/well of 95% ethanol was added to solubilize the formazan reaction product. The plates were shaken (Bellco Mini-Orbital Shaker) for 15 minutes. The solubilized formazan was then transferred (50 μls) into a 96-well plate and the optical densities (OD) were measured (Bio-Tek Microplate Reader) at 570 nm and reference wavelength of 660 nm. Percentage of inhibition of cell growth was calculated according to the following formula: [formula]

The subject of the next assay is RKO cells. Put plainly: Apoptosis: cell death detection by ELISA, RKO (colorectal carcinoma). In kind it is cell-based, human. As to conditions: for fold induction at 1 µM / fold induction at 3.3 µM / fold induction at 10 µM: Homo sapiens, RKO, read-out: Fold induction of apoptosis compared to no drug control. Here is the method:
Colorectal carcinoma, human (RKO) obtained from Dr. Bernie Vogelstein, were grown in Gibco's Delbecco Minimum Essential media (DMEM), high glucose, supplemented with sodium pyruvate, 10% FBS and 13 ng/mL gentamicin. Cells were incubated at 37° C., 4.5% CO2 and 95.5% humidified air.
as §1, §2, §3
A commercially available apoptosis detection kit, obtained from Boehringer Mannheim (Cat. No. 1544-674), was used as per the directions provided with the kit (Cell Death Detection ELISA). However, the protocol was modified in that a 1:40 to 1:100 dilution of sample was prepared, rather than the recommended 1:10 dilution, due to the increase in cell number used to prepare the sample extract and the subsequent increase in ELISA reactivity. The assay measures apoptosis by quantifying the amount of nucleosomal fragmentation from the extracts of cells treated with the test compounds (samples). These nucleosomal fragments, generated by the activation of endonucleases, are a known downstream effector of apoptosis. Antihistone antibodies are used to fix any nucleosomal fragments in the sample to the well of the microtiter plates. The sample is then incubated with anti-DNA antibodies conjugated to peroxidase and subsequently incubated with the peroxidase substrate, ABTS. The resulting colorimetric change is measured spectrophotometrically at 405/490nm.
The total protein content of each sample was determined for the purpose of normalizing the ELISA values to amount of sample loaded. Microplate assay protocol described in the instruction manual, for (Biorad DC Assay, Cat.#500-0116) section 5.2. The protein concentrations were calculated based upon a linear regression curve.
d) ELISA assay calculations
Relative ELISA O.D. readings are determined by subtracting the ELISA plate background O.D. value. No drug control O.D. value (lysis buffer only) was subtracted from sample O.D. value. A correction coefficient (CC), based on the sample protein concentration compared to no drug control, was determined to correct the sample O.D. following subtraction of the background O.D. (BCS O.D.). The fold increase over no drug control is calculated and normalized to the total protein concentration of the samples by multiplying against the correction coefficient.
To determine the fold increase in ELISA O.D., obtain the following O.D. measurements:
ELISA plate background--lysis buffer only (EPB);
no drug treated control--cell sample treated with DMSO (NDT);
drug treated sample--cell sample treated with a compound of formula 1 (DT) Subtract EPB from NDT (NDT-EPB) and DT (DT-EPB). The fold increase of the treated over the control is then (DT-EPB)/(NDT-EPB).
To determine the total protein concentration of the samples, obtain the total protein concentration in mg/ul calculated using standard linear regression formula (y=mx+b) based on BSA standards. B=ELISA background. Protein concentration (PC)(mg/ml)=(sample absorbance-b)/x.
Correction coefficient (cc) is (NDT)(PC)/(DT)(PC).
Determine fold increase of ELISA (FT) normalized to total PC:
nDT is DT×cc (which is DT O.D. normalized to PC)
nNDT is NDT×cc (which is NDT O.D. normalized to PC)
FI normalized to PC is nDT/nNDT.

SMILES strings stand for the structures. Like-named read-outs stand apart in the source and are kept apart here.

In the case of `C/C(=C/C=C/C(C)=C/C(=O)Nc1ccc(O)cc1)c1cc(C(F)(F)F)cc(C(F)(F)F)c1` [N-(4-hydroxyphenyl)-(2E,4E,6Z)-7-[3,5-bis(trifluoromethyl)phenyl]-3,7-dimethyl-2,4,6-heptatrienamide], the “Induction of apoptosis (in words)” value is “significant induction of apoptosis” in assay [1] and “induces significant apoptosis” in the assay with RKO cells (after 24 hours). Further, the inhibition (in general, the percentage by which the read-out fell short of the control) at 1 µM is 18% in the assay with MDA 231 cells (24 hours), 39% with MDA 231 cells (48 hours) and 46% in the assay with MDA 231 cells (72 hours). Besides, the results for the inhibition at 3.3 µM in the assay on MDA 231 cells (24 hours), in the assay on MDA 231 cells (48 hours) and in the assay with MDA 231 cells (72 hours) were 30%, 35% and 62%, respectively. Further, the inhibition at 10 µM in the assay on MDA 231 cells (24 hours) worked out at 26%; in the assay with MDA 231 cells (48 hours) it was 61%; in the assay with MDA 231 cells (72 hours), 71%. The fold induction at 1 µM with RKO cells (24 hrs) was determined as 2; in the assay with RKO cells (48 hrs), 4; in the assay on RKO cells (72 hrs), 1. Also, the fold induction at 3.3 µM with RKO cells (24 hrs) stood at 14; with RKO cells (48 hrs), 5; in the assay on RKO cells (72 hrs), 1. For the same compound, the fold induction at 10 µM was determined as 21 with RKO cells (24 hrs), 23 with RKO cells (48 hrs) and 15 with RKO cells (72 hrs).
